The target in this assay is ERα (estrogen receptor α) (Homo sapiens, UniProt P03372). Kind of assay: competitive radioligand binding assay with tritiated […]β-estradiol on recombinant hERα. On the set-up: gene ESR1; recombinant hERα.

The structures appear in SMILES notation.

Sequence of ERα (estrogen receptor α) (P03372 whole entry): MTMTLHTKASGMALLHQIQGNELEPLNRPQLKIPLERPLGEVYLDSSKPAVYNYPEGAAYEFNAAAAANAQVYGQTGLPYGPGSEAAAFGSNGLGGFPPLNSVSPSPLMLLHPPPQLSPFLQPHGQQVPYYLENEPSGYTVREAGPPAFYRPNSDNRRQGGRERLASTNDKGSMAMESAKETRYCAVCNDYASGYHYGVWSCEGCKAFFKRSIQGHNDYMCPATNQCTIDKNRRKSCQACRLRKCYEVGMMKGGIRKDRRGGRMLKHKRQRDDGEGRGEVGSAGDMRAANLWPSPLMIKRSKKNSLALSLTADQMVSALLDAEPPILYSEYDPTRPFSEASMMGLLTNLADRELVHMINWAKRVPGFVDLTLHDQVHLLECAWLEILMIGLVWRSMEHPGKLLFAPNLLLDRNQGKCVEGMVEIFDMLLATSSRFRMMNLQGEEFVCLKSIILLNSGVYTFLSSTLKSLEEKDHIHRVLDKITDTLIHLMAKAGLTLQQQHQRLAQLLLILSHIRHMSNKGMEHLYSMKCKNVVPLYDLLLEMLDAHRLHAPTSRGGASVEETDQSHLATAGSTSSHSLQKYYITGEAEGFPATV

In general, Ki refers to the dissociation constant of the complex between target and ligand, obtained from inhibition or displacement. With `C[C@]12CC[C@@H]3c4ccc(O)cc4CC[C@H]3[C@@H]1CC[C@@]2(O)C#Cc1cc(CN(CC(=O)[O-])CC(=O)[O-])nc(CN(CC(=O)[O-])CC(=O)[O-])c1.[Gd+3].[Na+]` [EPTA-Gd], the inhibition constant Ki stood at 0.97 ± 0.07 µM. With `CC/C(=C(\c1ccc(C#Cc2cc(CN(CC(=O)[O-])CC(=O)[O-])nc(CN(CC(=O)[O-])CC(=O)[O-])c2)cc1)c1ccc(OCCN(C)C)cc1)c1ccccc1.[Gd+3].[Na+]` [TPTA-Gd], the Ki worked out at 0.13 ± 0.006 µM.

For the origin of these results see article PMC4846659, “Estrogen Receptor-Targeted Contrast Agents for Molecular Magnetic Resonance Imaging of Breast Cancer Hormonal Status” (Frontiers in Oncology, 2016).
